These results are taken from publication PMC8298264, “Function of cofactor Akirin2 in the regulation of gene expression in model human neutrophil-like HL60 cells” (Bioscience Reports, 2021).

Assay [1] has as its system recombinant human Akirin2 (recAkirin2). Nature of the assay: EpiTriton Histone Peptide Array, recAkirin2 binding (fluorescence). The following applies: recAkirin2 vs HSP70, Student's t test and One-Way ANOVA (P<0.05), n=2 technical replicates.
The target of assay [2] is recAkirin2 (Homo sapiens, UniProt Q53H80). Nature of the assay: In vitro protein pull-down and Western blot of recAkirin2 with biotinylated histone H3.1 peptides. Type of assay: binding. Details: DDK (FLAG) (C); purchased GenScript (E. coli) or OriGene (HEK293T); 'insect cells and E. coli'. As to conditions: streptavidin beads, 1 µg protein, 2 h at RT, Akirin2-specific antibody ab130473. Background: In western blotting, separated proteins are transferred to a membrane and probed.
recAkirin2, sequence (Q53H80 whole entry): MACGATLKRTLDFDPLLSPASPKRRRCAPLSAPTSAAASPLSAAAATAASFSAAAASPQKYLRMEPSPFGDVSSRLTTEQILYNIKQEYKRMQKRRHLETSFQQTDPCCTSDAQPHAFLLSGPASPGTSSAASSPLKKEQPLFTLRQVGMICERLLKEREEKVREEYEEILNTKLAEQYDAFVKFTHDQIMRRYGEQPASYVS

Assay [3] deals with ELANE and LHX2 mRNA in human HL60 cells. As to the kind of experiment: Akirin2 'distraction' by histone peptide transfection, ELANE and LHX2 mRNA by qRT-PCR. The assay is classed as cell-based. The following applies: 1.5 μg peptide per well, HL60 1 × 10^5 cells/well, harvested after 72 h; normalized to β-actin; unpaired t test P<0.05, n=3 biological replicates. (In general: In qPCR the cycle at which signal appears reflects the starting amount.)

Assay [4] concerns tick SUB. As to conditions: cited from earlier work. From the text: Epigenetic modifications of histone H3.1 at Lys amino acids has been involved in the regulation of transcription in different BPs and pathogen infection [[48–51]].

Regarding “ARTKQTARKSTGGK(Me2)APRKQL-Peg-Biot [Peptide H3met, histone H3.1 amino acids 1–20 dimethylated at Lys^14, biotinylated]”, in assay [1], the “Akirin2–histone interaction by histone peptide array” value is given as “Akirin2–histone H3.1 interacting peptides”. Besides, the “recAkirin2–histone H3.1 peptide interaction by pull-down and Western blot” value in assay [2] is “corroborated by in vitro protein pull-down and Western blot analysis”. Consider “H2A: unrelated histone H2A (amino acids 1–17) peptide (Epicypher, Inc.) (SGRGKQGGKARAKAKTR; UniProt P0C0S8 2-18, looked up, fragment) [Peptide H2A]”, for which, in assay [3], the “Effect of transfection on gene expression (ELANE and LHX2 mRNA)” value is “not the unrelated H2A or HEPES buffer affected gene expression”. With “histone H4 but: histone H4, amino acids 1–23 butyrylated at Lys 5, 8 and 12”, in assay [4], the “physical interaction with tick SUB” value was “physical interaction”.
